# Data as given in US12492182B2, “Hydroxytriazine compounds and pharmaceutical use thereof” (Japan Tobacco Inc., priority 2015, dated 2025).
# Read-outs that look alike come from different tables or passages of the source.
# Experiments:
# human mPGES-1 = target: T1, human mPGES-1 (Homo sapiens, UniProt O14684); assay: Evaluation of human mPGES-1 enzyme inhibitory activity (HTRF measurement of PGE2); type: biochemical; conditions: IC50 value; microsome fraction of CHO-S cells expressing human mPGES-1, PGH2 substrate, PGE2 by HTRF; read-out: humans mPGES-1 enzyme inhibitory activity
# T1 construct: made in house; host or cells: Chinese hamster ovary-derived cells (FreeStyle CHO-S), transient transfection of pcDNA3.1(+)/human mPGES-1; microsome fraction
# T1 sequence (O14684 1-152): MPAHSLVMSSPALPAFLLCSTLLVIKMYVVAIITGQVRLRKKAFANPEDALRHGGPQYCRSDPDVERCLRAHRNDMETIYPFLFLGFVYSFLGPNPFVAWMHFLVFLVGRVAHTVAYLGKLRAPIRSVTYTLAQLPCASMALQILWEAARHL
# Protocol: Experimental Example 1: Evaluation of Human mPGES-1 Enzyme Inhibitory Activity
# The human mPGES-1 enzyme inhibitory activity of a test article was evaluated according to the report of Xu et al. (XU, D et al. MF63 [2-(6-chloro-1H-phenanthro[9,10-d]imidazol-2-yl)-isophthalonitrile], a selective microsomal prostaglandin E synthase-1 inhibitor relieves pyresis and pain in preclinical models of inflammation. J Pharmacol Exp Ther. September 2008, Vol. 326, No. 3, pages 754-763). The amount of PGE2 produced by human mPGES-1 in the presence of a test article was measured by the HTRF (homogeneous time resolved fluorescence) method, and the human mPGES-1 enzyme inhibitory activity of the test article was determined.
# 1) Preparation of Human mPGES-1 Expressing Cell Microsome Fraction
# A DNA fragment containing human mPGES-1, which is added with a BamHI recognition cleavage sequence just before the translation initiation codon and an EcoRI recognition cleavage sequence just after the translation termination codon, was amplified by the PCR (Polymerase Chain Reaction) method using a human mPGES-1 expression plasmid DNA (pME-18S/iPGES-1) prepared in-house as a template. The purified DNA fragment was digested with BamHI and EcoRI, and ligated to pcDNA3.1(+) (Invitrogen, model number V790-20), similarly_digested with BamHI and EcoRI, by using a DNA Ligation kit ver. 2.1 (Takara Bio, model number 6022). The human mPGES-1 expression plasmid DNA was isolated from Escherichia coli DH5a (TOYOBO, model number DNA-903) transformed with the obtained ligation product. The base sequence of human mPGES-1 cloned to a vector was determined by the Dye Terminator method using BigDye Terminator v3.1 Cycle Sequencing Kit (Applied Biosystems, #4337455). The determined sequence was identical with the sequence of the protein translational region of human mPGES-1 (Accession number NM 004878) registered in the NCBI Reference Database.
# Human mPGES-1 expression plasmid DNA was transfected into Chinese hamster ovary-derived cells (FreeStyle CHO-S Cell, Invitrogen, #R^800-07) by using a transgene reagent (FreeStyle MAX Reagent (Invitrogen, #16447-100)), and cultured with shaking (8% CO2, 37° C.) in a medium containing 8 mmol/L L-glutamine (GIBCO FreeStyle CHO Expression Medium, Invitrogen, #12651-022) for 48 hr.
# The CHO-S cells were suspended in Homogenate Buffer (100 mmol/L potassium phosphate (pH 7.4), 250 mmol/L Sucrose, 100 mmol/L EDTA, complete EDTA free (Roche, #1873580)). Using an ultrasonic disruptor UD-201 (Tomy Seiko), the suspended cells were disrupted at output:3, duty cycle:50 for 30 seconds. The precipitate was removed by centrifugation (1,000×g, 5 min, 4° C.), and the supernatant was centrifuged (5,000×g, 10 min, 4° C.). The supernatant was further centrifuged (105,000×g, 60 min, 4° C.). The obtained precipitate was suspended in Resuspension Buffer (100 mmol/L potassium phosphate (pH 7.4), 250 mmol/L sucrose, 100 mmol/L EDTA, 10% glycerol) to give a microsome fraction.
# The protein concentration of the microsome fraction was measured by the Bradford method (Protein Assay Kit, Bio-Rad). The microsome fraction was rapidly frozen in liquid nitrogen and preserved at −80° C. Human mPGES-1 in the microsome fraction was detected by Western Blot using rabbit anti-mPGES-1 polyclonal antibody (ThermoFisher Scientific, #PA1-10264).
# 2) Evaluation of Human mPGES-1 Enzyme Inhibitory Activity
# A test article solution diluted with 0.1 mol/L potassium phosphate, pH 7.4 (hereinafter to be referred to as KPB) or DMSO (Nacalai Tesque, #13407-45) was added at 5 μL/well to 96 well V-bottom plate (Corning, #3363). The final DMSO concentration during the reaction was set to 2%(v/v). Furthermore, a microsome fraction of CHO-S cells expressing human mPGES-1, which was diluted with reduced GSH (12.5 mmol/L KPB solution, SIGMA, #G6529-25G) such that the protein concentration was 5 μg/mL, was added at 20 μL/well. […]
# A549 cell = assay: Evaluation of PGE2 production inhibitory action using A549 cell (IL-1β stimulated); type: cell-based, human
# Protocol: Experimental Example 2: Evaluation of PGE2 Production Inhibitory Action Using A549 Cell
# A549 cell (Japan Health Sciences Foundation Research Resources Bank), which is cell line derived from humans lung cancer, was suspended in assay medium (Ham's F-12K (Wako, #080-08565) containing 2% FBS (Hyclone Laboratories, #SH30910.03), 100 units/mL penicillin and 100 μg/mL streptomycin (Invitrogen, #15140-122)), the suspension was added at 2.5×10^4 cells/100 μL/well to 96 well flat-bottom plate (Corning, #353072), and the plate was left standing for 20 hr in a CO2 incubator set at 37° C. The test article was serially diluted with DMSO (Nacalai Tesque, #13407-45), and then 20-fold diluted with the assay medium to prepare a test article solution having a ten-fold concentration of the final concentration. The final DMSO concentration during the reaction was set to 0.5% (v/v). The medium was removed from the plate in which the cell was added, new assay medium was added at 160 μL/well to the plate, and the plate was left standing for 10 min in a CO2 incubator. Then, the test article solution was added at 20 μL/well to the plate, and the plate was left standing for 30 min in a CO2 incubator. Next, recombinant humans IL-1β (R&D Systems, #201-LB) as a stimulant to enhance PGE2 production due to increase of mPGES-1 mRNA expression was added at 20 μL/well (the final concentration was 1 ng/mL) to the plate, and the plate was left standing for 18 hr in a CO2 incubator. The supernatant was collected at 180 μL/well, and the PGE2 concentration was measured using Prostaglandin E2 assay (CISbio Bioassays, #62P2APEC) according to the manual. As the reference standard for analytical curve, PGE2 (Cayman Chemical, #14010) was used. Using EnVision 2104 (Perkin Elmer), the time-resolved fluorescence at 620 nm and 665 nm relative to the excitation light at 337 nm was measured. PGE2 concentration was extrapolated from the PGE2 analytical curve. Average of the PGE2 concentrations of the respectively-treated wells was used as the data.
# The PGE2 production inhibitory activity (%) of the test article was calculated according to the following Formula 3. PGE2 production inhibitory activity(%)=(PGE2A−PGE2X)/(PGE2A−PGE2B)×100 [Formula 3] • PGE2A: PGE2 concentration of vehicle-treated well • PGE2B: PGE2 concentration of blank well (no addition of recombinant humans IL-1B) • PGE2X: PGE2 concentration of test article-treated well
# [1] = A549 cell, recombinant human IL-1β stimulation, read-out: cell PGE2 production inhibitory activity (IC50 value)
# [2] = Homo sapiens, A549, A549 cell, recombinant human IL-1β stimulation, read-out: cell PGE2 production inhibitory activity (IC50 value)
# [3] = Homo sapiens, A549, 18 h, IC50 value, A549 cell, recombinant IL-1β 1 ng/mL, 18 hr, PGE2 in supernatant, read-out: cell PGE2 production inhibitory activity
IC50 (human mPGES-1) [nM],IC50 (A549 cell; [1]) [nM],IC50 (A549 cell; [2]) [nM],IC50 (A549 cell; [3]) [nM],SMILES
0.8,4.8,,,"CCC(OC)(C(=O)NCc1ccc(Cl)c(-c2nc(O)nc(-c3cccc(C(C)C)c3)n2)c1)C(F)(F)F (single isomer, unassigned) [Example 132]"
1.7,19,,,"CCC(OC)(C(=O)NCc1ccc(Cl)c(-c2nc(O)nc(-c3cccc(C(C)C)c3)n2)c1)C(F)(F)F (single isomer, unassigned) [Example 134]"
7.7,,2.1,,"CCC[C@@H](C)Oc1ccc(-c2nc(O)nc(-c3cc(CNC(=O)C(CC)(OC)C(F)(F)F)ccc3Cl)n2)cn1 (single isomer, unassigned) [Example 142]"
12,,,2.9,CCCOc1ccc(-c2nc(O)nc(-c3cc(CNC(=O)C(C)(C)C(F)(F)F)ccc3Cl)n2)cc1C(C)C [Example 4]
1.1,,,30,CCCCc1cccc(-c2nc(O)nc(-c3cc(CNC(=O)C(C)(C)C(F)(F)F)ccc3Cl)n2)c1 [Example 5]
0.7,,,14,CCC1(C(=O)NCc2ccc(Cl)c(-c3nc(O)nc(-c4cccc(C(C)C)c4)n3)c2)CC1 [Example 8]
1.2,,,4.7,CCCCOc1ccc(-c2nc(O)nc(-c3cc(CNC(=O)C(C)(C)C(F)(F)F)ccc3Cl)n2)cn1 [Example 14]
0.5,,,120,CCC(C)(CC)C(=O)NCc1ccc(Cl)c(-c2nc(O)nc(-c3cccc(C(C)C)c3)n2)c1 [Example 15]
67,,,1300,CCOC(C)(C)C(=O)NCc1ccc(Cl)c(-c2nc(O)nc(-c3cccc(C(C)C)c3)n2)c1 [Example 17]
5.3,,,260,CC(C)c1cc(-c2nc(O)nc(-c3cc(CNC(=O)C(C)(C)C(F)(F)F)ccc3Cl)n2)cc(C(C)C)c1 [Example 18]
3.9,,,2.2,CCCCCOc1ccc(-c2nc(O)nc(-c3cc(CNC(=O)C(C)(C)C(F)(F)F)ccc3Cl)n2)cn1 [Example 21]

# The remaining lines, values behind:
SMILES,IC50 (human mPGES-1) [nM],IC50 (A549 cell; [1]) [nM],IC50 (A549 cell; [2]) [nM],IC50 (A549 cell; [3]) [nM]
"CCC[C@@H](C)Oc1ccc(-c2nc(O)nc(-c3cc(CNC(=O)C(CC)(OC)C(F)(F)F)ccc3Cl)n2)cn1 (single isomer, unassigned) [Example 143]",3.9,1.6,,
"CCC[C@H](C)Oc1ccc(-c2nc(O)nc(-c3cc(CNC(=O)C(CC)(OC)C(F)(F)F)ccc3Cl)n2)cn1 (single isomer, unassigned) [Example 144]",3.9,,1.6,
"CCC[C@H](C)Oc1ccc(-c2nc(O)nc(-c3cc(CNC(=O)C(CC)(OC)C(F)(F)F)ccc3Cl)n2)cn1 (single isomer, unassigned) [Example 145]",4.5,1.7,,
CCCOc1cccc(-c2nc(O)nc(-c3cc(CNC(=O)C(C)(C)C(F)(F)F)ccc3Cl)n2)c1 [Example 1],0.9,,,27
CCCOc1ccc(-c2nc(O)nc(-c3cc(CNC(=O)C(C)(C)C(F)(F)F)ccc3Cl)n2)cn1 [Example 2],1.1,,,8.6
CCCCOc1cccc(-c2nc(O)nc(-c3cc(CNC(=O)C(C)(C)C(F)(F)F)ccc3Cl)n2)c1 [Example 3],2.1,,,27
CCC(C)(C)C(=O)NCc1ccc(Cl)c(-c2nc(O)nc(-c3cccc(C(C)C)c3)n2)c1 [Example 6],0.4,,,23
CCCC(C)(C)C(=O)NCc1ccc(Cl)c(-c2nc(O)nc(-c3cccc(C(C)C)c3)n2)c1 [Example 7],1,,,68
CCOc1cccc(-c2nc(O)nc(-c3cc(CNC(=O)C(C)(C)C(F)(F)F)ccc3Cl)n2)c1 [Example 9],0.7,,,37
CCCOc1cc(C)cc(-c2nc(O)nc(-c3cc(CNC(=O)C(C)(C)C(F)(F)F)ccc3Cl)n2)c1 [Example 10],1.7,,,49
Cc1cc(-c2nc(O)nc(-c3cc(CNC(=O)C(C)(C)C(F)(F)F)ccc3Cl)n2)cc(C(C)(C)C)c1 [Example 11],0.2,,,17
COCC(C)(C)C(=O)NCc1ccc(Cl)c(-c2nc(O)nc(-c3cccc(C(C)C)c3)n2)c1 [Example 12],3.2,,,350
COCC1(C(=O)NCc2ccc(Cl)c(-c3nc(O)nc(-c4cccc(C(C)C)c4)n3)c2)CC1 [Example 13],21,,,1000
CC(C)c1cccc(-c2nc(O)nc(-c3cc(CNC(=O)C4(C)CCCCC4)ccc3Cl)n2)c1 [Example 16],0.4,,,34
CC(C)(C)COc1ccc(-c2nc(O)nc(-c3cc(CNC(=O)C(C)(C)C(F)(F)F)ccc3Cl)n2)cn1 [Example 19],3.3,,,1.7
CC(C)(C)c1cc(-c2nc(O)nc(-c3cc(CNC(=O)C(C)(C)C(F)(F)F)ccc3Cl)n2)cc(C(C)(C)C)c1 [Example 20],30,,,150
